Source: patent US11142526B2, “Spirocycle compounds and methods of making and using same” (H. Lundbeck A/S, priority 2017, dated 2021)

How the values were obtained:
MAGL [1] = biological target: T1, MAGL (Mus musculus (Mouse), UniProt O35678); experiment: Mouse brain proteomes from inhibitor treated mice (oral gavage, brain MAGL activity 4 h after administration); format: in vivo; conditions: 5 mg/kg oral gavage
Protocol: Preparation of Mouse Brain Proteomes from Inhibitor Treated Mice.
Inhibitors were administered to wild-type C57B1/6J by oral gavage in a vehicle of polyethylene glycol.

MAGL [2] = biological target: T1, MAGL; experiment: In vitro competitive activity-based protein profiling, mouse brain proteome; format: biochemical; conditions: for inhibition at 1 µM: mouse; for IC50: mouse brain

T1 sequence (O35678 whole entry): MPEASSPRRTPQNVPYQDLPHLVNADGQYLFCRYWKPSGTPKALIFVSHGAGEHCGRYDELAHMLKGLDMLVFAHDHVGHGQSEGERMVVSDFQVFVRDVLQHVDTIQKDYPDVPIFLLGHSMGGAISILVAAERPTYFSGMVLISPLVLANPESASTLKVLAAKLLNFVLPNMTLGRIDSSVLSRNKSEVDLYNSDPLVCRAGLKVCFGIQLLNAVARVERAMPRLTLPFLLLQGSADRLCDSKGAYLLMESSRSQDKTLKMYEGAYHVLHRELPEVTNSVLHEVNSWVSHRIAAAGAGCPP

inhibition at 1 µM (MAGL [2]) [%] | IC50 (MAGL [2]) [nM] | SMILES | MAGL % Inhibition at 5 mg/kg (Mouse) (MAGL [1])
 | < 100 | Cc1c(CN2CCCC23CCN(C(=O)OC(C(F)(F)F)C(F)(F)F)CC3)sc2ccccc12 [Example 43, 1,1,1,3,3,3-Hexafluoropropan-2-yl 1-((3-methylbenzo[b]thiophen-2-yl)methyl)-1,8-diazaspiro[4.5] decane-8-carboxylate] | ### (% inhibition is greater than or equal to 75%)
> 75 | < 100 | O=C(OC(C(F)(F)F)C(F)(F)F)N1CCC2(CCCN2C(=O)c2ccc3occc3c2)CC1 [Example 77, 1,1,1,3,3,3-Hexafluoropropan-2-yl 1-(benzofuran-5-carbonyl)-1,8-diazaspiro[4.5] decane-8-carboxylate] | ### (% inhibition is greater than or equal to 75%)
> 75 | < 100 | O=C(OC(C(F)(F)F)C(F)(F)F)N1CCC2(CCCN2C(=O)c2cc3cc(C(F)(F)F)ccc3s2)CC1 [Example 102, 1,1,1,3,3,3-Hexafluoropropan-2-yl 1-(5-(trifluoromethyl)benzo[b]thiophene-2-carbonyl)-1,8-diazaspiro[4.5] decane-8-carboxylate] | ### (% inhibition is greater than or equal to 75%)
> 75 | < 100 | CC(C)(C)c1cc(CN2CCC3(CCN(C(=O)OC(C(F)(F)F)C(F)(F)F)CC3)C2)n(C2CCOCC2)n1 [Example 213, 1,1,1,3,3,3-Hexafluoropropan-2-yl 2-((3-(t-butyl)-1-(tetrahydro-2H-pyran-4-yl)-1H-pyrazol-5-yl)methyl)-2,8-diazaspiro[4.5]decane-8-carboxylate] | ### (% inhibition is greater than or equal to 75%)
> 75 | < 100 | CCc1cc(CN2CCC3(CCN(C(=O)OC(C(F)(F)F)C(F)(F)F)CC3)C2)n(-c2ccccc2Cl)n1 [Example 215, 1,1,1,3,3,3-Hexafluoropropan-2-yl 2-((1-(2-chlorophenyl)-3-ethyl-1H-pyrazol-5-yl)methyl)-2,8-diazaspiro[4.5]decane-8-carboxylate] | ### (% inhibition is greater than or equal to 75%)
> 75 | < 100 | CC(C)n1cc(CN2CCC3(CCN(C(=O)OC(C(F)(F)F)C(F)(F)F)CC3)C2)c(-c2cccc(Cl)c2)n1 [Example 218, 1,1,1,3,3,3-Hexafluoropropan-2-yl 2-((3-(3-chlorophenyl)-1-isopropyl-1H-pyrazol-4-yl)methyl)-2,8-diazaspiro[4.5]decane-8-carboxylate] | ### (% inhibition is greater than or equal to 75%)
> 75 | < 100 | CC(C)n1cc(CN2CCCC23CCN(C(=O)OC(C(F)(F)F)C(F)(F)F)CC3)c(-c2cccc(Cl)c2)n1 [Example 219, 1,1,1,3,3,3-Hexafluoropropan-2-yl 1-((3-(3-chlorophenyl)-1-isopropyl-1H-pyrazol-4-yl)methyl)-1,8-diazaspiro[4.5]decane-8-carboxylate] | ### (% inhibition is greater than or equal to 75%)

The next lines start with the compound.

SMILES | inhibition at 1 µM (MAGL [2]) [%] | IC50 (MAGL [2]) [nM] | MAGL % Inhibition at 5 mg/kg (Mouse) (MAGL [1])
CCc1cc(CN2CCC3(CCN(C(=O)OC(C(F)(F)F)C(F)(F)F)CC3)C2)n(C2CCOCC2)n1 [Example 7, 1,1,1,3,3,3-Hexafluoropropan-2-yl 2-((3-ethyl-1-(tetrahydro-2H-pyran-4-yl)-1H-pyrazol-5-yl)methyl)-2,8-diazaspiro[4.5]decane-8-carboxylate] | > 75 | < 100 | ### (% inhibition is greater than or equal to 75%)
O=C(OC(C(F)(F)F)C(F)(F)F)N1CCC2(CCCN2Cc2cc3c(Cl)cc(Cl)cc3[nH]2)CC1 [Example 11, 1,1,1,3,3,3-Hexafluoropropan-2-yl 1-((4,6-dichloro-1H-indol-2-yl)methyl)-1,8-diazaspiro[4.5]decane-8-carboxylate] | > 75 | < 100 | ### (% inhibition is greater than or equal to 75%)
O=C(OC(C(F)(F)F)C(F)(F)F)N1CCC2(CCCN2C(=O)c2cc3cc(Cl)cc(Cl)c3[nH]2)CC1 [Example 16, 1,1,1,3,3,3-Hexafluoropropan-2-yl 1-(5,7-dichloro-1H-indole-2-carbonyl)-1,8-diazaspiro[4.5]decane-8-carboxylate] | > 75 | < 100 | ### (% inhibition is greater than or equal to 75%)
O=C(OC(C(F)(F)F)C(F)(F)F)N1CCC2(CCCN2Cc2cc3cc(C(F)(F)F)ccc3s2)CC1 [Example 41, 1,1,1,3,3,3-Hexafluoropropan-2-yl 1-((5-(trifluoromethyl)benzo[b]thiophen-2-yl)methyl)-1,8-diazaspiro[4.5] decane-8-carboxylate] | > 75 | < 100 | ### (% inhibition is greater than or equal to 75%)
O=C(OC(C(F)(F)F)C(F)(F)F)N1CCC2(CCCN2Cc2sc3ccccc3c2Cl)CC1 [Example 42, 1,1,1,3,3,3-Hexafluoropropan-2-yl 1-((3-chlorobenzo[b]thiophen-2-yl)methyl)-1,8-diazaspiro[4.5] decane-8-carboxylate] | > 75 | < 100 | ### (% inhibition is greater than or equal to 75%)
COc1ccc(-c2cc(CN3CCCC34CCN(C(=O)OC(C(F)(F)F)C(F)(F)F)CC4)no2)cc1 [Example 46, 1,1,1,3,3,3-Hexafluoropropan-2-yl 1-((5-(4-methoxyphenyl)isoxazol-3-yl)methyl)-1,8-diazaspiro[4.5] decane-8-carboxylate] |  | < 100 | ## (% inhibition is less than 75% and greater than 25%)
O=C(OC(C(F)(F)F)C(F)(F)F)N1CCC2(CCN(Cc3cc4cc(Cl)ccc4s3)C2)CC1 [Example 51, 1,1,1,3,3,3-Hexafluoropropan-2-yl 2-((5-chlorobenzo[b]thiophen-2-yl)methyl)-2,8-diazaspiro[4.5] decane-8-carboxylate] | > 75 | < 100 | ### (% inhibition is greater than or equal to 75%)
O=C(OC(C(F)(F)F)C(F)(F)F)N1CCC2(CCCN2Cc2cc3cc(F)ccc3[nH]2)CC1 [Example 52, 1,1,1,3,3,3-Hexafluoropropan-2-yl 1-((5-fluoro-1H-indol-2-yl)methyl)-1,8-diazaspiro[4.5] decane-8-carboxylate] | > 75 | < 100 | ### (% inhibition is greater than or equal to 75%)
O=C(OC(C(F)(F)F)C(F)(F)F)N1CCC2(CCCN2Cc2ccc3ccccc3n2)CC1 [Example 54, 1,1,1,3,3,3-Hexafluoropropan-2-yl 1-(quinolin-2-ylmethyl)-1,8-diazaspiro [4.5]decane-8-carboxylate] | > 75 | < 100 | ### (% inhibition is greater than or equal to 75%)
Cc1ccc2sc(CN3CCCC34CCN(C(=O)OC(C(F)(F)F)C(F)(F)F)CC4)cc2c1 [Example 61, 1,1,1,3,3.3-Hexafluoropropan-2-yl 1-((5-methylbenzo[b]thiophen-2-yl)methyl)-1,8-diazaspiro[4.5] decane-8-carboxylate] | > 75 | < 100 | ### (% inhibition is greater than or equal to 75%)
O=C(OC(C(F)(F)F)C(F)(F)F)N1CCC2(CCCN2C(=O)c2cc3cc(Cl)ccc3[nH]2)CC1 [Example 93, 1,1,1,3,3.3-Hexafluoropropan-2-yl 1-(5-chloro-1H-indole-2-carbonyl)-1,8-diazaspiro[4.5] decane-8-carboxylate] | > 75 | < 100 | ### (% inhibition is greater than or equal to 75%)
O=C(OC(C(F)(F)F)C(F)(F)F)N1CCC2(CCCN2C(=O)c2cc3ccc(C(F)(F)F)cc3s2)CC1 [Example 101, 1,1,1,3,3,3-Hexafluoropropan-2-yl 1-(6-(trifluoromethyl)benzo[b]thiophene-2-carbonyl)-1,8-diazaspiro[4.5] decane-8-carboxylate] | > 75 | < 100 | ### (% inhibition is greater than or equal to 75%)
O=C(OC(C(F)(F)F)C(F)(F)F)N1CCC2(CCCN2C(=O)c2cc3cccc(Cl)c3s2)CC1 [Example 105, 1,1,1,3,3,3-Hexafluoropropan-2-yl 1-(7-chlorobenzo[b]thiophene-2-carbonyl)-1,8-diazaspiro[4.5] decane-8-carboxylate] | > 75 | < 100 | ### (% inhibition is greater than or equal to 75%)
Cc1c(C(=O)N2CCCC23CCN(C(=O)OC(C(F)(F)F)C(F)(F)F)CC3)[nH]c2ccc(Cl)cc12 [Example 109, 1,1,1,3,3,3-Hexafluoropropan-2-yl 1-(5-chloro-3-methyl-1H-indole-2-carbonyl)-1,8-diazaspiro[4.5] decane-8-carboxylate] | > 75 | < 100 | ### (% inhibition is greater than or equal to 75%)
CC(C)c1cc(CN2CCC3(CCN(C(=O)OC(C(F)(F)F)C(F)(F)F)CC3)C2)n(C2CCOCC2)n1 [Example 214, 1,1,1,3,3,3-Hexafluoropropan-2-yl 2-((3-isopropyl-1-(tetrahydro-2H-pyran-4-yl)-1H-pyrazol-5-yl)methyl)-2,8-diazaspiro[4.5]decane-8-carboxylate] | > 75 | < 100 | ### (% inhibition is greater than or equal to 75%)
CC(C)c1cc(CN2CCC3(CCN(C(=O)OC(C(F)(F)F)C(F)(F)F)CC3)C2)n(-c2ccccc2Cl)n1 [Example 216, 1,1,1,3,3,3-Hexafluoropropan-2-yl 2-((1-(2-chlorophenyl)-3-isopropyl-1H-pyrazol-5-yl)methyl)-2,8-diazaspiro[4.5]decane-8-carboxylate] | > 75 | < 100 | ### (% inhibition is greater than or equal to 75%)
